The source of these data is patent US7820706B2, “Multiple dose aromatase inhibitor for treating infertility” (Ares Trading S.A., priority 2001, dated 2010).

Counter-ions that a name gives are not always drawn. Like-named read-outs stand apart in the source and are kept apart here.

The subject of data set [1] is postmenopausal breast cancer patients. The following applies: lethargy, rashes, nausea and fever; cited from earlier work.
For data set [2], the target named is T1, aromatase (Homo sapiens, UniProt P11511).
T1 sequence (P11511 1-503): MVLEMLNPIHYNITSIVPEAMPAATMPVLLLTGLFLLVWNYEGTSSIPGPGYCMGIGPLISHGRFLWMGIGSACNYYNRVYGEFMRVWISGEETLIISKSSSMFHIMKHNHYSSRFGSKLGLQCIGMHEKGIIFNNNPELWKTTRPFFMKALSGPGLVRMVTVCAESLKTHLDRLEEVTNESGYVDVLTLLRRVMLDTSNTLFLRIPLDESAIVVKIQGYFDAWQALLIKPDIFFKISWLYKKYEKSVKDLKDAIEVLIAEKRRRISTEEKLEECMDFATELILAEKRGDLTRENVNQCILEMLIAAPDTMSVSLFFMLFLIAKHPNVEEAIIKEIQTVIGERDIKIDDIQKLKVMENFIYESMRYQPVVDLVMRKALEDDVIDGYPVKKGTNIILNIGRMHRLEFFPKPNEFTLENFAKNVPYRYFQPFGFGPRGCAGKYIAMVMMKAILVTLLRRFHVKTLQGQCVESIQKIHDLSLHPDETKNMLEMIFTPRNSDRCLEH
The following applies: cited from earlier work.

The test system of data set [3] is patients who failed to ovulate or ovulated with endometrial thickness <5 mm in response to CC.
Experimental: HCG 10,000 IU was given to trigger ovulation. CC was given in a dose of 50-100 mg on days 3-7 or 5-9.
The test system of another data set is mature female rats. The conditions noted are these: cited from earlier work.
For another data set, the system named is rats. The conditions noted are these: rat, in vivo; cited from earlier work.
Data set [4] relates to patients who failed to ovulate or ovulated with endometrial thickness <5 mm in response to CC. The experiment in a line: Example 1: letrozole for ovulation induction after CC failure. The format is in vivo, human.
Text: HCG 10,000 IU was given to all except one patient to trigger ovulation. Ten patients completed 12 cycles (one patient completed three cycles).
The test system of the next data set is mice. The following applies: mouse, in vivo; cited from earlier work.
The subject of data set [5] is women with PCOS; ovulatory women. The following applies: cited from earlier work.
For data set [6], the target named is T2, aromatase (Rattus norvegicus, UniProt P22443).
T2 sequence (P22443 1-508): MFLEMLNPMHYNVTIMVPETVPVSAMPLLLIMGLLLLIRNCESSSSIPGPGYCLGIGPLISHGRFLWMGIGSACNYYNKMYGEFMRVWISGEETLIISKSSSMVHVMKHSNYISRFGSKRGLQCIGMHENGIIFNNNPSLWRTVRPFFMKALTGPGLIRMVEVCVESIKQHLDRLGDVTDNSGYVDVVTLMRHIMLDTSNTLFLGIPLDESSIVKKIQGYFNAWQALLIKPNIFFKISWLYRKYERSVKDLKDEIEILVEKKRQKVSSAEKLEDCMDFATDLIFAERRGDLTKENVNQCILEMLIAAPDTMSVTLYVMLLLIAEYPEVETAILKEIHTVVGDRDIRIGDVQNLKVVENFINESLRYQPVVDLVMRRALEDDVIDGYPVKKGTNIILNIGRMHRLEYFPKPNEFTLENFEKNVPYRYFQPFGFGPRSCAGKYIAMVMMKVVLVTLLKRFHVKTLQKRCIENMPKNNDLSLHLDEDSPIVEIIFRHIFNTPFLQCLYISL
The conditions noted are these: given orally; cited from earlier work.

Data set [7] concerns patients with PCOS with inadequate response to CC. The following applies: cited from earlier work.
The test system of data set [8] is ovulatory women with unexplained infertility and anovulatory women with PCOS. The following applies: cited from earlier work.
For data set [9] the following is noted: oral, healthy postmenopausal women; cited from earlier work.
The conditions of data set [10]: in vivo; cited from earlier work.
For data set [11], the system named is endometrium of normal women. The following applies: morphometric analysis; cited from earlier work.
For a further data set, the system named is anovulatory women. The following applies: cited from earlier work.

`CCC1(c2ccc(N)cc2)CCC(=O)NC1=O` (centres unmarked) [aminoglutethimide]: in data set [1], the “patients stopping treatment because of side effects” value was 8-15%.

With `CC(C)(C#N)c1cc(Cn2cncn2)cc(C(C)(C)C#N)c1` [anastrozole], the “in vivo inhibition of aromatase” value on aromatase [2] is 97%.

As to `N#Cc1ccc(C(c2ccc(C#N)cc2)n2cncn2)cc1` [letrozole], the “pregnancy, patients” value in [3] (5 out of 15 patients) is listed as 33%; in data set [4] (4 out of 10 patients), 40%; in data set [5] (PCOS group, 3 patients) it was 25%; in data set [5] (ovulatory group, one patient) it was 10%. In addition, the “ovulation, cycles” value is given as 77% in data set [3] (13 of 17 letrozole cycles); 75% in data set [4] (9 of 12 cycles, 2.5 to 5 mg/day); 75% in data set [5] (PCOS group, 9 of 12 cycles). Also, the “Endometrial Thickness” value in [3] (mean) is listed as 0.8 Cm; in [3] (median), 0.8 Cm; in [3] (range), 0.6-1.1 Cm; in data set [4] (mean) it was 0.8 Cm; in data set [4] (median) it was 0.8 Cm; in [4] (range), 0.6-0.9 Cm. In addition, the figures for the “Estradiol per mature follicle” value in data set [3] (mean), in [3] (median) and in [3] (range) were 392 pmol/L, 289 pmol/L and 107 to 837 pmol/L, respectively. Besides, the “Number of Days from last letrozole tablet to HCG day” value (“Number of Days” below) in [3] (mean) is given as 6.7; in data set [3] (median), 7; in [3] (range), 2-9. The “FSH and LH” value with mature female rats is “increased FSH and LH”. Moreover, the “increase in ovarian weight” value in the data set with mature female rats is reported as around 30%. The lethal dose result with rats and with mice was “approximately 2000 mg/kg” in each case. Moreover, the “Estradiol on day of HCG admin.” value in [4] (mean) turned out to be 1036 pmol; in data set [4] (median), 988 pmol. In addition, in data set [4] (range), the “Follicles >1.5 Cm On day of HCG admin.” value was 1-3. The mean endometrial thickness in data set [5] (ovulatory group) is given as 0.8 cm. Further, the “mean number of mature follicles” value in data set [5] (ovulatory group) was 2.3; in data set [7] (7 ovulatory cycles, mean), 2.6. Moreover, the ED50 in vivo on aromatase [6] was 1 to 3 µg/kg. Moreover, the “ovulation, letrozole treated cycles” value in [7] (7 of the 10 cycles, PCOS) was 70%. Also, the “number of mature follicles, range” value in data set [7] (7 ovulatory cycles, range) was 1 to 4 follicles. For the same compound, the “mean estradiol per follicle” value in data set [7] (mean) was 378 pmol/L. In addition, in [7] (of 10 PCOS patients), the chemical pregnancy entry is “one”. The clinical pregnancy in data set [7] (of 10 PCOS patients) is reported as 2 patients. In addition, the “FSH dose required for adequate ovarian super ovulation” value in data set [8] (letrozole in conjunction with FSH) was “significantly lower FSH dose”. Further, in data set [8] (low responders during ovarian stimulation), the “ovarian response to FSH stimulation” value is recorded as “improvement in ovarian response to FSH stimulation”. Besides, the half-life result in data set [9] is “approximately 45 hours”. In data set [10], the doses well tolerated entry is recorded as “up to 30 mg”.

On to `CCN(CC)CCOc1ccc(C(=C(Cl)c2ccccc2)c2ccccc2)cc1` [CC, clomiphene citrate], for which the “effect on the endometrium (glandular density, vacuolated cells)” value in data set [11] is “deleterious effect on the endometrium”. In addition, in [3] (mean), the “Day of hCG administration” value stood at 12.6, the “Endometrial Thickness” value is on record as 0.5 Cm, the “Estradiol on day of hCG administration” value was 2145 pmol/L and the “Estradiol per mature follicle” value is on record as 1278 pmol/L. Further, in data set [3] (mean), the “Follicles >1.5 Cm on day of hCG administration” value stood at 1.9, the “LH on day of hCG administration” value worked out at 16 IU/L and the “Number of Days” value amounted to 4.4. Also, in data set [3] (median), the “Day of hCG administration” value is 12, the “Endometrial Thickness” value was determined as 0.4 Cm, the “Estradiol on day of hCG administration” value was 1668 pmol/L and the “Estradiol per mature follicle” value is given as 1486 pmol/L. Moreover, in [3] (median), the “Follicles >1.5 Cm on day of hCG administration” value came to 2, the “LH on day of hCG administration” value came out at 8 IU/L and the “Number of Days” value was found to be 4. In data set [3] (range), the “Day of hCG administration” value was 11-16, the “Endometrial Thickness” value is 0.4-0.8 Cm, the “Estradiol on day of hCG administration” value was in the range of 362 to 5210 pmol/L and the “Estradiol per mature follicle” value lay within 177 to 2404 pmol/L. In data set [3] (range), the “Follicles >1.5 Cm on day of hCG administration” value is 1-5, the “LH on day of hCG administration” value is listed as 3-66 IU/L and the “Number of Days” value is listed as 2-7. Also, in the data set with anovulatory women (doses up to 150 mg daily), the “anovulatory women resistant to CC who fail to ovulate” value is reported as 20% to 25%. For the same compound, the “women who do not ovulate with CC” value in the data set on anovulatory women (in vivo) is recorded as 20 to 25%.
